Legend:
[1] = species: Rattus norvegicus; assay: Calcium binding protein induction in duodenal organ culture at a concentration of 0.01 nM in Male Albino rats; type: functional
[2] = species: Rattus norvegicus; assay: Calcium binding protein induction in duodenal organ culture at a concentration of 0.1 nM in Male Albino rats; type: functional
[3] = species: Rattus norvegicus; assay: Calcium binding protein induction in duodenal organ culture at a concentration of 10 nM in Male Albino rats; type: functional
[4] = species: Rattus norvegicus; assay: Calcium binding protein induction in duodenal organ culture at a concentration of 1 nM in Male Albino rats; type: functional
[5] = Relative potency against calcium binding protein induction in duodenal organ culture at a concentration of 0.01 nM compared to 1,25-(OH)2-D3 in Male Albino rats; type: functional
[6] = species: Gallus gallus; assay: Bind to chick intestinal Vitamin D3 receptor for 1,25-(OH)2-D3
[7] = molecular target: T1, Vitamin D-binding protein (Rattus norvegicus) (UniProt P04276); assay: Displacement of [3H]25-(OH)-D3 from rat plasma Vitamin D binding protein; type: cell-free
T1 sequence (whole entry): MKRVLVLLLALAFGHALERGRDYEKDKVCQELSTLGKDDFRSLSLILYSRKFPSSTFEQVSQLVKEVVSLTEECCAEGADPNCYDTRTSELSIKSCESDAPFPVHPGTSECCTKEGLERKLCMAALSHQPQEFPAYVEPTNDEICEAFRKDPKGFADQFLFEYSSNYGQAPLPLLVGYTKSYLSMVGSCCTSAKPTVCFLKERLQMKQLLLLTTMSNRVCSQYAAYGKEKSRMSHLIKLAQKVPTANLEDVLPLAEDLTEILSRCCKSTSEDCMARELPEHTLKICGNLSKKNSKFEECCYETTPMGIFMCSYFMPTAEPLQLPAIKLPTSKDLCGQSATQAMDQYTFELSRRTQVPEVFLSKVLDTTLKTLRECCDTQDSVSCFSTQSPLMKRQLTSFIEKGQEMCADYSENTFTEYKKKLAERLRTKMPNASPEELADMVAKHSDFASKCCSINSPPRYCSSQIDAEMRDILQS

## C=C1/C(=C/C=C2\CCC[C@]3(C)[C@@H]([C@H](C)CCC(F)(F)C(O)(CC)CC)CC[C@@H]23)C[C@@H](O)C[C@@H]1O
[1]
  Ca2+ binding protein: 11.9 ug (100mg of duodenum)-1
[2]
  Ca2+ binding protein: 21.7 ug (100mg of duodenum)-1
[3]
  Ca2+ binding protein: 94 ug (100mg of duodenum)-1
[4]
  Ca2+ binding protein: 49.5 ug (100mg of duodenum)-1
[5]
  Relative potency: 325

## C=C1CC[C@H](O)C/C1=C/C=C1\CCC[C@]2(C)[C@@H]([C@H](C)CC[C@@H](O)C(C)(C)O)CC[C@@H]12
[6]
  B50: 804 nM
[7]
  B50: 3.22 nM

## C=C1/C(=C/C=C2\CCC[C@]3(C)[C@@H]([C@H](C)CCCC(C)C)CC[C@@H]23)C[C@@H](O)C[C@@H]1O
[6]
  B50: 139 nM
[7]
  B50: 848 nM

## C=C1CC[C@H](O)C/C1=C/C=C1\CCC[C@]2(C)[C@@H]([C@H](C)CCCC(C)C)CC[C@@H]12
[7]
  B50: 338 nM

## C=C1CC[C@H](O)C/C1=C/C=C1\CCC[C@]2(C)[C@@H]([C@H](C)CCC[C@@](C)(O)CO)CC[C@@H]12
[6]
  B50: 4300 nM
[7]
  B50: 4.03 nM

Reference: ChEMBL document CHEMBL1125035, “Synthesis and biological activity of novel vitamin D analogues: 24,24-difluoro-25-hydroxy-26,27-dimethylvitamin D3 and 24,24-difluoro-1 alpha,25-dihydroxy-26,27-dimethylvitamin D3” (1990)
